The results in this text go back to patent publication US20250332178A1, “METHODS OF TREATING MYCOBACTERIAL INFECTIONS USING TETRACYCLINE COMPOUNDS” (priority 2018, published 2025).

Assay [1] concerns H37Rv strain of Mycobacterium tuberculosis. Kind of assay: MIC against H37Rv strain. It is filed as cell-based. Particulars: Mycobacterium tuberculosis, H37RV. The protocol:
The purpose of this study was to test activity of selected tetracycline compounds against the H37Rv strain of Mycobacterium tuberculosis. Minimum inhibitory concentrations (MIC) of different tetracycline compounds against H37Rv strain were determined and are shown in Table 8.

The test system of assay [2] is rapid-growing mycobacteria (RGM) isolates. The assay is described as follows: MIC (CLSI broth dilution), all RGM isolates. It is filed as cell-based, nontuberculous mycobacteria. The note with it: all 50 RGM isolates. A general note: In broth dilution the organism is exposed to a series of concentrations in liquid medium.
In a further assay the test system is M. abscessus complex. The assay is described as follows: MIC (CLSI broth dilution), RGM isolates. The assay is classed as cell-based. The note with it: Mycobacteroides abscessus, read-out: MIC.
The subject of another assay is M. chelonae. Kind of assay: MIC (CLSI broth dilution), RGM isolates. The assay is classed as cell-based. The note with it: Mycobacteroides chelonae, read-out: MIC.
The next assay deals with M. fortuitum group. Kind of assay: MIC (CLSI broth dilution), RGM isolates. The assay is classed as cell-based. Particulars: Mycolicibacterium fortuitum, read-out: MIC.
A further assay has as its system M. immunogenum group. The assay is described as follows: MIC (CLSI broth dilution), RGM isolates. It is filed as cell-based. The note with it: M. immunogenum, read-out: MIC.
A further assay concerns M. mucogenium group. The assay is described as follows: MIC (CLSI broth dilution), RGM isolates. It is filed as cell-based. Particulars: read-out: MIC.
Another assay has as its system M. smegmatis group. The assay is described as follows: MIC (CLSI broth dilution), RGM isolates. It is filed as cell-based. The note with it: Mycolicibacterium smegmatis, read-out: MIC.
[3] abbreviates: isolate 36, M. immunogenum group.
The mark [4] stands for this setting: isolate 37, M. immunogenum group.
[5] abbreviates: isolate 38, M. immunogenum group.

In brackets after ≈: the same amount, converted by molar mass. Read-outs that look alike come from different tables or passages of the source. Bounds are passed on as bounds.

For `CN(C)c1cc(CNCC2CC2)c(O)c2c1C[C@H]1C[C@H]3[C@H](N(C)C)C(O)=C(C(N)=O)C(=O)[C@@]3(O)C(O)=C1C2=O` [Compound 65], the MIC (usually the lowest concentration found to suppress growth) in assay [1] (read-out: MIC) is 16 mg/L (≈ 29.6 µM).
For `CN(C)c1cc(CNCc2ccccc2)c(O)c2c1C[C@H]1C[C@H]3[C@H](N(C)C)C(O)=C(C(N)=O)C(=O)[C@@]3(O)C(O)=C1C2=O` [Compound 66], the MIC in assay [1] (read-out: MIC) is more than 32 mg/L.
On the same count and under the same terms, next, `Cc1noc(C)c1S(=O)(=O)NCc1cc(N(C)C)c2c(c1O)C(=O)C1=C(O)[C@]3(O)C(=O)C(C(N)=O)=C(O)[C@@H](N(C)C)[C@@H]3C[C@@H]1C2` [Compound 67]: more than 32 mg/L.
The same measure, in the same setting: the result for `CN(C)[C@@H]1C(O)=C(C(N)=O)C(=O)[C@@]2(O)C(O)=C3C(=O)c4c(ccc(CNCC(C)(C)C)c4O)C[C@H]3C[C@@H]12` [Compound 68] reads more than 32 mg/L; that for `CN(C)c1cc(Cn2ccc(C=O)c2)c(O)c2c1C[C@H]1C[C@H]3[C@H](N(C)C)C(O)=C(C(N)=O)C(=O)[C@@]3(O)C(O)=C1C2=O` [Compound 69], more than 32 mg/L.
In the case of `CC(C)CNCc1cc(N(C)C)c2c(c1O)C(=O)C1=C(O)[C@]3(O)C(=O)C(C(N)=O)=C(O)[C@H](N(C)C)[C@@H]3C[C@@H]1C2` [Compound 70], in assay [1] (read-out: MIC), the MIC was 16 mg/L (≈ 29.5 µM).
On the same count and under the same terms, next, `CN(C)c1cc(CNC(=O)[C@@H]2CCCN2C)c(O)c2c1C[C@H]1C[C@H]3[C@@H](N(C)C)C(O)=C(C(N)=O)C(=O)[C@@]3(O)C(O)=C1C2=O` [Compound 71]: 16 mg/L (≈ 26.8 µM); `C[C@H]1c2ccc(CN3CCCCC3)c(O)c2C(=O)C2=C(O)[C@]3(O)C(=O)C(C(N)=O)=C(O)[C@@H](N(C)C)[C@@H]3[C@@H](O)[C@@H]21` [Compound 72]: 32 mg/L (≈ 59.1 µM).
The same measure, in the same setting: next, `CN(C)[C@H]1C(O)=C(C(N)=O)C(=O)[C@@]2(O)C(O)=C3C(=O)c4c(O)c(CNCC(C)(C)C)cc(-c5ccoc5)c4C[C@H]3C[C@@H]12` [Compound 73]: more than 32 mg/L; `CC(NCc1cc(N(C)C)c2c(c1O)C(=O)C1=C(O)[C@]3(O)C(=O)C(C(N)=O)=C(O)C(N(C)C)[C@@H]3C[C@@H]1C2)C(F)(F)F` (stereo partly shown) [Compound 74]: more than 32 mg/L.
Turning to `CN(C)c1cc(CNc2nc(-c3ccc(F)cc3)cs2)c(O)c2c1C[C@H]1C[C@H]3C(N(C)C)C(O)=C(C(N)=O)C(=O)[C@@]3(O)C(O)=C1C2=O` (stereo partly shown) [Compound 75], in assay [1] (read-out: MIC), the MIC is more than 32 mg/L.
On the same count and under the same terms, next, `CN(C)c1cc(CNc2nc(C(F)(F)F)cs2)c(O)c2c1C[C@H]1C[C@H]3C(N(C)C)C(O)=C(C(N)=O)C(=O)[C@@]3(O)C(O)=C1C2=O` (stereo partly shown) [Compound 76]: more than 32 mg/L.
The same measure, in the same setting: the result for `CN(C)c1cc(CNCc2cc(F)c(F)c(F)c2)c(O)c2c1C[C@H]1C[C@H]3C(N(C)C)C(O)=C(C(N)=O)C(=O)[C@@]3(O)C(O)=C1C2=O` (stereo partly shown) [Compound 77] reads more than 32 mg/L; that for `CN(C)c1cc(CNCc2ccc(C#N)cc2)c(O)c2c1C[C@H]1C[C@H]3C(N(C)C)C(O)=C(C(N)=O)C(=O)[C@@]3(O)C(O)=C1C2=O` (stereo partly shown) [Compound 78], 32 mg/L (≈ 53.2 µM).
For `CN(C)c1cc(CNC(CF)CF)c(O)c2c1C[C@H]1C[C@H]3[C@H](N(C)C)C(O)=C(C(N)=O)C(=O)[C@@]3(O)C(O)=C1C2=O` [Compound 79], in assay [1], the minimal inhibitory concentration (MIC) is 32 mg/L (≈ 56.7 µM).
Consider `CN(C)c1cc(CN2CCOCC2)c(O)c2c1C[C@H]1C[C@H]3[C@H](N(C)C)C(O)=C(C(N)=O)C(=O)[C@@]3(O)C(O)=C1C2=O` [Compound 80], for which the MIC in assay [1] (read-out: MIC) was 16 mg/L (≈ 28.7 µM).
With `CC(CC(F)(F)F)NCc1cc(N(C)C)c2c(c1O)C(=O)C1=C(O)[C@]3(O)C(=O)C(C(N)=O)=C(O)[C@@H](N(C)C)[C@@H]3C[C@@H]1C2` (stereo partly shown) [Compound 81], the MIC in assay [1] (read-out: MIC) was 32 mg/L (≈ 53.6 µM).
Still for that read-out and setting: the result for `CN(C)c1cc(CNc2ccccc2)c(O)c2c1C[C@H]1C[C@H]3[C@H](N(C)C)C(O)=C(C(N)=O)C(=O)[C@@]3(O)C(O)=C1C2=O` [Compound 82] reads more than 32 mg/L; that for `CN(C)c1cc(CN2CCCC2)c(O)c2c1C[C@H]1C[C@H]3C(N(C)C)C(O)=C(C(N)=O)C(=O)[C@@]3(O)C(O)=C1C2=O` (stereo partly shown) [Compound 83], 32 mg/L (≈ 59.2 µM).
On to `CO[C@@]1(NC(=O)Cc2cccs2)C(=O)N2C(C(=O)O)=C(COC(N)=O)CS[C@@H]21` [FOX, cefoxitin], for which, in assay [2] (read-out: MIC50), the MIC50 (usually an inhibitory concentration at the 50% level, which refers to growth in some studies and to a panel of isolates in others) worked out at 32 mg/L (≈ 74.9 µM). The MIC90 (commonly an inhibitory concentration at the 90% level, which refers to growth in some studies and to a panel of isolates in others) in assay [2] (read-out: MIC90) is more than 64 mg/L. For the same compound, the MIC in the assay on M. abscessus complex (isolate 1, M. abscessus complex, erm gene type MAB30) stood at 32 mg/L (≈ 74.9 µM); in the assay on M. abscessus complex (isolate 2, M. abscessus complex, erm gene type MAB30), 32 mg/L (≈ 74.9 µM); in the assay on M. abscessus complex (isolate 3, M. abscessus complex, erm gene type MAB30), 32 mg/L (≈ 74.9 µM); in the assay with M. abscessus complex (isolate 4, M. abscessus complex, erm gene type massiliense), 32 mg/L (≈ 74.9 µM); in the assay with M. abscessus complex (isolate 5, M. abscessus complex, erm gene type massiliense/subsp. abs hybrid), 32 mg/L (≈ 74.9 µM); in the assay on M. abscessus complex (isolate 6, M. abscessus complex, erm gene type Type 1 abscessus), 32 mg/L (≈ 74.9 µM). Also, the MIC with M. abscessus complex (isolate 7, M. abscessus complex, erm gene type Type 1 abscessus) was determined as 32 mg/L (≈ 74.9 µM); with M. abscessus complex (isolate 8, M. abscessus complex, erm gene type Type 1 abscessus), 32 mg/L (≈ 74.9 µM); in the assay with M. abscessus complex (isolate 9, M. abscessus complex, erm gene type Type 1 abscessus), 32 mg/L (≈ 74.9 µM); in the assay on M. abscessus complex (isolate 10, M. abscessus complex, erm gene type Type 1 abscessus) it was 32 mg/L (≈ 74.9 µM); with M. abscessus complex (isolate 11, M. abscessus complex, erm gene type Type 6 abscessus), 32 mg/L (≈ 74.9 µM); in the assay on M. abscessus complex (isolate 12, M. abscessus complex, erm gene type Type 6 abscessus), 32 mg/L (≈ 74.9 µM). The MIC is 32 mg/L (≈ 74.9 µM) in the assay with M. abscessus complex (isolate 13, M. abscessus complex, erm gene type Type 6 abscessus); 64 mg/L (≈ 150 µM) in the assay on M. abscessus complex (isolate 14, M. abscessus complex, erm gene type Type 6 abscessus); 32 mg/L (≈ 74.9 µM) with M. abscessus complex (isolate 15, M. abscessus complex, erm gene type Type 7 abscessus); 32 mg/L (≈ 74.9 µM) with M. abscessus complex (isolate 16, M. abscessus complex, erm gene type Type 7 abscessus); 32 mg/L (≈ 74.9 µM) in the assay with M. abscessus complex (isolate 17, M. abscessus complex, erm gene type Type 8 abscessus); more than 64 mg/L in the assay on M. chelonae (isolate 18, M. chelonae). Besides, the MIC in the assay on M. chelonae (isolate 19, M. chelonae) is more than 64 mg/L; in the assay with M. chelonae (isolate 20, M. chelonae), more than 64 mg/L; with M. chelonae (isolate 21, M. chelonae), more than 64 mg/L; with M. chelonae (isolate 22, M. chelonae) it was more than 64 mg/L; in the assay with M. fortuitum group (isolate 23, M. fortuitum group, M. fortuitum), 32 mg/L (≈ 74.9 µM); in the assay with M. fortuitum group (isolate 24, M. fortuitum group, M. fortuitum) it was more than 64 mg/L. Besides, the MIC with M. fortuitum group (isolate 25, M. fortuitum group, M. fortuitum) was 32 mg/L (≈ 74.9 µM); in the assay on M. fortuitum group (isolate 26, M. fortuitum group, M. porcinum), 32 mg/L (≈ 74.9 µM); with M. fortuitum group (isolate 27, M. fortuitum group, M. porcinum), 32 mg/L (≈ 74.9 µM); with M. fortuitum group (isolate 28, M. fortuitum group, M. porcinum/M. boenickei), 32 mg/L (≈ 74.9 µM); in the assay with M. fortuitum group (isolate 29, M. fortuitum group, M. porcinum/M. boenickei), 32 mg/L (≈ 74.9 µM); in the assay on M. fortuitum group (isolate 30, M. fortuitum group, M. porcinum/M. boenickei) it was not above 16 mg/L. The MIC is 32 mg/L (≈ 74.9 µM) in the assay with M. fortuitum group (isolate 31, M. fortuitum group, M. senegalense); 32 mg/L (≈ 74.9 µM) with M. fortuitum group (isolate 32, M. fortuitum group, M. senegalense); less than 16 mg/L in the assay on M. fortuitum group (isolate 33, M. fortuitum group, M. senegalense); 32 mg/L (≈ 74.9 µM) in the assay on M. fortuitum group (isolate 34, M. fortuitum group, M. senegalense); more than 64 mg/L in the assay with M. immunogenum group (isolate 35, M. immunogenum group); more than 64 mg/L in the assay with M. immunogenum group (setting [3]). Moreover, the MIC with M. immunogenum group (setting [4]) was more than 64 mg/L; in the assay on M. immunogenum group (setting [5]), more than 64 mg/L; with M. mucogenium group (isolate 39, M. mucogenicum group, M. mucogenicum), not above 16 mg/L; with M. mucogenium group (isolate 40, M. mucogenicum group, M. mucogenicum), not above 16 mg/L; in the assay on M. mucogenium group (isolate 41, M. mucogenicum group, M. mucogenicum) it was not above 16 mg/L; in the assay with M. mucogenium group (isolate 42, M. mucogenicum group, M. mucogenicum) it was not above 16 mg/L. Also, the MIC in the assay on M. mucogenium group (isolate 43, M. mucogenicum group, M. phocaicum) is not above 16 mg/L; in the assay on M. mucogenium group (isolate 44, M. mucogenicum group, M. phocaicum), not above 16 mg/L; with M. mucogenium group (isolate 45, M. mucogenicum group, M. phocaicum) it was not above 16 mg/L; in the assay on M. mucogenium group (isolate 46, M. mucogenicum group, M. phocaicum), not above 16 mg/L; in the assay with M. mucogenium group (isolate 47, M. mucogenicum group, M. phocaicum) it was not above 16 mg/L; with M. mucogenium group (isolate 48, M. mucogenicum group, M. phocaicum) it was not above 16 mg/L. For the same compound, the MIC in the assay on M. smegmatis group (isolate 49, M. smegmatis group, M. goodii) is more than 64 mg/L; in the assay with M. smegmatis group (isolate 50, M. smegmatis group, M. wolinskyi), 64 mg/L (≈ 150 µM).
For `NC[C@H]1O[C@H](O[C@H]2[C@H](O)[C@@H](O[C@H]3O[C@H](CO)[C@@H](O)[C@H](N)[C@H]3O)[C@H](N)C[C@@H]2N)[C@H](N)C[C@@H]1O` [TOB, tobramycin], the MIC in the assay with M. chelonae (isolate 18, M. chelonae) was not above 2 mg/L; with M. chelonae (isolate 19, M. chelonae) it was not above 2 mg/L; with M. chelonae (isolate 20, M. chelonae) it was not above 2 mg/L; with M. chelonae (isolate 21, M. chelonae), not above 2 mg/L; with M. chelonae (isolate 22, M. chelonae) it was not above 2 mg/L; with M. immunogenum group (setting [3]), 8 mg/L (≈ 17.1 µM). Also, the MIC in the assay on M. immunogenum group (setting [4]) and in the assay on M. immunogenum group (setting [5]) was more than 8 mg/L throughout.
